Reference: PubChem BioAssay AID1845194 (Molecular Pharmacology Branch, DTP, NCI, 2023)
pIC50: −log10 of the molar value.

Tested on: 287954-098-R-J1 tumor spheroid viability
Assay: Anticancer human tumor 287954-098-R-J1 patient-derived Ewing sarcoma cell line growth inhibition
Settings: spheroids with HUVEC and MSC; for pIC50: curve of first compound; for viability, T/C: stronger effect = lower value
Procedure, shortened: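 Complex spheroids of malignant cells with endothelial cells and mesenchymal stem cells; agents alone or combined, from near clinical Cmax (or 10 microM if unknown) down in half-log steps, 0.25% DMSO final.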
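Also: spheroids exposed to compound for 7 days before viability readout.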
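For viability, T/C in this document: luminescent signal taken as surrogate of viable cell content; 100% = DMSO vehicle control viability and lower means growth inhibition.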

## O=C(c1cc(Cc2n[nH]c(=O)c3ccccc23)ccc1F)N1CCN(C(=O)C2CC2)CC1 + Cn1nnc2c(C(N)=O)ncn2c1=O
Second compound 1 µM
  pIC50: 4.69
Second compound 3.16 µM
  pIC50: 4.68
Second compound 10 µM
  pIC50: 4.98
Second compound 31.6 µM
  pIC50: 5.47
Second compound 100 µM
  pIC50: 6.21
Second compound 1 µM, first compound 0.0949 µM
  viability, T/C: 97.5%
Second compound 1 µM, first compound 0.3 µM
  viability, T/C: 97.2%
Second compound 1 µM, first compound 0.949 µM
  viability, T/C: 106%
Second compound 1 µM, first compound 3 µM
  viability, T/C: 95.1%
Second compound 1 µM, first compound 9.49 µM
  viability, T/C: 86.2%
Second compound 1 µM, first compound 30 µM
  viability, T/C: 32.5%
Second compound 3.16 µM, first compound 0.0949 µM
  viability, T/C: 104%
Second compound 3.16 µM, first compound 0.3 µM
  viability, T/C: 101%
Second compound 3.16 µM, first compound 0.949 µM
  viability, T/C: 98.2%
Second compound 3.16 µM, first compound 3 µM
  viability, T/C: 105%
Second compound 3.16 µM, first compound 9.49 µM
  viability, T/C: 85.1%
Second compound 3.16 µM, first compound 30 µM
  viability, T/C: 34%
Second compound 10 µM, first compound 0.0949 µM
  viability, T/C: 107%
Second compound 10 µM, first compound 0.3 µM
  viability, T/C: 107%
Second compound 10 µM, first compound 0.949 µM
  viability, T/C: 93.6%
Second compound 10 µM, first compound 3 µM
  viability, T/C: 99%
Second compound 10 µM, first compound 9.49 µM
  viability, T/C: 53.7%
Second compound 10 µM, first compound 30 µM
  viability, T/C: 4.76%
Second compound 31.6 µM, first compound 0.0949 µM
  viability, T/C: 107%
Second compound 31.6 µM, first compound 0.3 µM
  viability, T/C: 103%
Second compound 31.6 µM, first compound 0.949 µM
  viability, T/C: 106%
Second compound 31.6 µM, first compound 3 µM
  viability, T/C: 56%
Second compound 31.6 µM, first compound 9.49 µM
  viability, T/C: 2.11%
Second compound 31.6 µM, first compound 30 µM
  viability, T/C: 1.97%
Second compound 100 µM, first compound 0.0949 µM
  viability, T/C: 104%
Second compound 100 µM, first compound 0.3 µM
  viability, T/C: 88.5%
Second compound 100 µM, first compound 0.949 µM
  viability, T/C: 27.7%
Second compound 100 µM, first compound 3 µM
  viability, T/C: 2.13%
Second compound 100 µM, first compound 9.49 µM
  viability, T/C: 1.91%
Second compound 100 µM, first compound 30 µM
  viability, T/C: 1.8%
